Experiment in all cases: growth of human tumour cells (NCI), 48 h
In test [1] the test system is LOX IMVI melanoma.
In test [2] the test system is HCC-2998 colon.
Test [3] concerns MALME-3M melanoma.
Test [4] concerns 786-0 renal.
In test [5] the test system is CAKI-1 renal.
Test [6] concerns MCF7 breast.
Test [7] concerns HOP-92 NSCLC.
Test [8] concerns SF-539 CNS.
The subject of test [9] is UACC-62 melanoma.
Test [10] has as its system MDA-MB-231 breast.

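The compound was tested at five concentrations on cells cultured in 96-well plates, with a 48-hour exposure period. GI50 is the concentration that inhibits growth by half. At the TGI there is no net growth.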

These results are taken from PubChem BioAssay (NCI).

Regarding `COc1ccc2cc(C(=O)/C=C/c3ccccc3OC)ccc2c1`, the GI50 in test [1] is 0.863 µM; in [2], 5.92 µM; in [3] it was 8.32 µM; in [4] it was 5.59 µM; in [5], 0.862 µM; in test [7], greater than 22.6 µM. In addition, the GI50 was 1.72 µM in test [8], 1.88 µM in test [9] and 2.73 µM in test [10]. Besides, the TGI in test [1] is 3.89 µM; in test [2] it was 13 µM; in test [3], 67.2 µM; in test [4], 21.5 µM; in test [5] it was 4.88 µM; in test [6], greater than 100 µM. The TGI is greater than 50.4 µM in [7], 4.6 µM in test [8], 11.9 µM in [9] and 21.7 µM in [10].

With `CSc1ccc2c(c1)C(=O)c1c-2n(CCCN=[N+]=[N-])c(=O)c2cc([N+](=O)[O-])ccc12`, the GI50 in test [1] was 1.22 µM; in test [2], 1.57 µM; in test [4], 1.65 µM; in test [5], 2.33 µM; in test [6], 4.09 µM; in [7], 5.24 µM. Moreover, the results for the GI50 in [8], in test [9] and in [10] were 1.46 µM, 0.683 µM and greater than 100 µM, respectively. Moreover, the TGI in [1] was greater than 100 µM; in test [2], 66 µM; in [3], greater than 38.9 µM; in [4] it was 14.6 µM; in [5], greater than 66.5 µM; in test [6], greater than 100 µM. Moreover, the TGI is greater than 100 µM in [7], greater than 100 µM in test [8], greater than 88.7 µM in test [9] and greater than 100 µM in test [10].

Consider `O=CNc1ccc2c(c1)Cc1cc([N+](=O)[O-])ccc1-2`, for which the GI50 in test [1] was 2.62 µM; in test [2] it was 1.3 µM; in [3], 5.97 µM; in [4], 5.32 µM; in [5], 3.29 µM; in test [6], 0.561 µM. In addition, the GI50 in test [7] is 6.97 µM; in test [8] it was 4.14 µM; in test [9] it was 4.3 µM; in [10] it was 4.11 µM. In addition, the TGI in [1] is 98.5 µM; in [2], greater than 100 µM; in test [3], greater than 100 µM; in test [4] it was greater than 100 µM; in [5], greater than 100 µM; in [6], greater than 100 µM. The TGI in test [7], in test [8], in test [9] and in test [10] was greater than 100 µM each time.

In the case of `N=C1N=Nc2nc(C3(c4nc5n(c4O)C(=N)N=N5)Cc4ccccc4C3=O)c(O)n21` (stereo not drawn), the TGI in [1], in [2], in test [3], in test [4], in test [5] and in test [6] was greater than 100 µM in each case. Also, the TGI in test [7], in test [8], in test [9] and in test [10] was greater than 100 µM each time.

In the case of `COc1cc2c(cc1C)NC(=O)/C2=C/c1c(C)nc2sc(C)cn12`, the GI50 in [1] is greater than 100 µM; in [2] it was 31.7 µM; in test [3], 60.1 µM; in test [4], greater than 100 µM; in [5], 52 µM; in test [6], 64.1 µM. Further, the GI50 in [7] is 22.1 µM; in [8], greater than 100 µM; in [9], 38.9 µM; in [10] it was 40.9 µM. For the same compound, the TGI in test [1], in test [2], in [3], in [4], in [5] and in test [6] was greater than 100 µM in each case. Moreover, the TGI in [7], in [8], in [9] and in test [10] was greater than 100 µM in each case.

For `C[C@H]1[C@H](C)CC[C@]2(C(=O)O)CC[C@]3(C)C(=CC[C@@H]4[C@@]5(C)CC[C@H](OC(=O)/C=C\c6ccc(O)cc6)C(C)(C)[C@@H]5CC[C@]43C)[C@H]12`, the GI50 in test [1] was 3.86 µM; in [2], 2.92 µM; in [3], 2.51 µM; in test [4] it was 3.22 µM; in [5] it was 3.71 µM; in test [6], 1.36 µM. In addition, the GI50 was 4.25 µM in test [7], 2.9 µM in [8], 10.9 µM in [9] and 2.55 µM in [10]. Further, the TGI in test [1] is 15.9 µM; in test [2] it was 14.1 µM; in test [3], 13.2 µM; in test [4], 16 µM; in test [5], 15.6 µM; in test [6] it was 3.63 µM. Besides, the TGI in test [7] was found to be 19.2 µM; in test [8], 13.5 µM; in test [9], 22.8 µM; in test [10] it was 13.5 µM.

As to `Cn1cc(C2=C(c3cccc(NCC(O)CO)c3)C(=O)NC2=O)c2cc(Cl)ccc21` (stereo not drawn), the GI50 in test [1] was 3.05 µM; in test [2], 6.56 µM; in test [3], 7.84 µM; in [4] it was 4.31 µM; in test [5], 2.56 µM; in test [6] it was 0.356 µM. The GI50 in test [7] is 8.16 µM; in test [8] it was 1.78 µM; in test [9] it was 4.66 µM; in test [10], 5.94 µM. For the same compound, the TGI in test [1] was determined as 15.1 µM; in test [2] it was 17.9 µM; in test [3] it was 14.8 µM; in test [4] it was 16.5 µM; in [5], 13.2 µM; in test [6] it was 12.6 µM. In addition, the TGI worked out at 14.1 µM in test [7], 6.9 µM in [8], 11.6 µM in test [9] and 15.5 µM in test [10].

For the compound `O=C(O)C#Cc1ccc([N+](=O)[O-])cc1`, the TGI in test [1], in [2], in [3], in [4], in [5] and in [6] was greater than 100 µM each time. Besides, the TGI in [7], in test [8], in test [9] and in test [10] was greater than 100 µM each time.
